In US20240180139A1, “SOLVENT FOR INSECT REPELLENT ACTIVE INGREDIENT AND INSECT REPELLENT SYSTEM USING SAME” (Thermacell Repellents, Inc., priority 2021, published 2024):
Like-named read-outs stand apart in the source and are kept apart here.

Legend:
[1] = solubility of pyrethroid active ingredients in glycol solvents
Excerpt: In the development of active ingredient and solvent formulations, glycols, like glycol-related solvents, have physical and chemical characteristics that would not be considered an aspiration hazard. Evaluations of a range of glycol and modified glycol solvents also involved consideration of a variety of materials in contact with these solvents. […] In addition to considerations of the device, solubility of the active ingredients is a significant consideration on several levels. […] Considerations of not only the solvent material but the concentration levels of particular active ingredients ae necessary to create an efficacious formula compatible with heated repeller devices. […] Incorporating active ingredients at such high levels creates additional solubility challenges which further reduces suitable active ingredient candidates.

[2] = release / vaporization rate through heated wick of dispensing device; format: physicochemical; details: relative to metofluthrin and transfluthrin, in certain test conditions
Excerpt: (§1) Once candidate materials are identified, considerations of whether release rates relative to the selected glycols would be sufficient to deliver good spatial mosquito repellency. […] In one embodiment, an approximate 70:30 solvent ratio of two solvents is provided.

mosquitoes = test: outdoor spatial mosquito repellency
Excerpt: as §1, with “provided. In another aspect, the solvent ratio may be a ratio range such as 60-70:40-30, or 65-70:35-30, wherein the sum of specific glycol amounts totals to 100.” for “provided.”

OCCO [ethylene glycol]
solvent quality for insect repellents ([1]; some of the insect repellents, particularly prallethrin (FIG. 6)): not good solvents

OCC(O)CO [glycerol]
release rate capacity [2]: limited release rate capacity

C/C=C/C1C(C(=O)OCc2c(F)c(F)c(COC)c(F)c2F)C1(C)C (centres unmarked) [metofluthrin]
zone of mosquito repellency (mosquitoes; glycol as solvent, 3-4 Watt heating element): 20 foot | active ingredient concentration in the formula needed for sufficient outdoor mosquito repellency (mosquitoes; outdoors): 4%

CC(O)CO (centres unmarked) [propylene glycol]
solvent quality for insect repellents [1]: not good solvents
